The results in this text go back to patent US8912184B1, “Therapeutic and diagnostic methods” (Alzheimer's Institute of America, Inc., priority 2010, dated 2014).

By EC50 is commonly meant the concentration at which the effect is half-maximal.

A value given as a limit tells only on which side of the number the result lay.

Data set [1] concerns MIA PaCa2 cell line. Briefly: cells. Particulars: Homo sapiens, MIA PaCa-2, 72 h, read-out: EC50 of NA rescue from Exemplary Compound A-induced cytotoxicity. The method, then: (§1) In the second method, cells were exposed to varying concentrations of NA in the presence of a fixed, toxic concentration of Nampt1 inhibitor. This allows determination of the relative effectiveness of NA at rescuing Nampt1 inhibitor-mediated cytotoxicity across cell lines. For this method, the following modifications were made to the standard cytotoxicity assay. Twenty four hours after cell were plated, a serial dilution of nicotinic acid, dissolved in water, was generated and added to the cells. […] Cell viability was then assessed at 72 h. Cell viability (after normalization to controls lacking Nampt1 inhibitor) was plotted against NA concentration.
(§2) In cases where the high asymptote of the NA rescue curve corresponded to 75% or less recovery in cell viability, the cell line was deemed to be partially rescued.
(§3) In the first set of experiments, two different cancer cell lines were employed.

The subject of data set [2] is HCT-116 cell line. Briefly: cells. The following applies: Homo sapiens, HCT-116, 72 h, read-out: EC50 of NA rescue from Exemplary Compound A-induced cytotoxicity. As for the experimental part: as §1, §2, §3
Data set [3] is classed as in vivo. Particulars: mice, oral NA 3 g/kg 1 h prior or up to 8 h following 300 mg/kg Exemplary Compound A.

Take `O=C(O)c1cccnc1` [NA, nicotinic acid]: the values for the concentration for a half-maximal effect (EC50) in data set [1] and in data set [2] were over 10000 nM and 400 nM, respectively. Besides, the “effect of NA on Exemplary Compound A lethality” value in data set [3] was “completely blocked”.
